The nature of this data set: HLB value of emulsifiers. In kind it is physicochemical. As to conditions: emulsifier raw material. Here is the method: The HLB value (Hydrophile Lipophile Balance) refers to a value showing hydrophilicity of a surfactant. This is an index representing the balance of the lipophilicity and hydrophilicity of the object compound, which is determined as a relative value to an HLB value for a hypothetical compound, generally an ethylene oxide adduct-type nonionic surfactant having an infinite long hydrophilic group attached to a lipophilic group and having the maximum hydrophilicity, which is set to 20, and to an HLB value for a lipophilic compound having no hydrophilic group, which is set to 0.
Take “decaglycerol laurate [Decaglycerol monolaurate]”: the HLB is listed as 15.0.

With `CCCCCCCC/C=C\CCCCCCCC(=O)OCC(O)CO` (stereo not drawn) [Glycerol oleate, glycerol monooleate], the HLB was found to be 4.3.

Turning to diglycerol monooleate, the HLB came out at 7.4.
